Experimental data reported in patent US20230389548A1, “MIXTURES OF PYRIMIDINES AS HERBICIDAL COMPOSITIONS” (SYNGENTA CROP PROTECTION AG, priority 2020, published 2023).

Tests used:
Assay in all cases: Post-emergence glasshouse spray test, visual percentage phytotoxicity after 13 days
Assay type in all cases: in vivo
[1] = system: Abutilon threophrasti (ABUTH); settings: B1
Protocol: (§1) Seeds of Setaria faberi (SETFA), Echinochloa crus-galli (ECHCG), Digitaria sanguinalis (DIGSA), Lolium perenne (LOLPE), Alopecurus myosuroides (ALOMY), Chenopodium album (CHEAL), Ipomoea hederacea (IPOHE), Stellaria media (STEME), Abutilon threophrasti (ABUTH), Amaranthus retroflexus (AMARE) were sown in standard sterilised soil in pots. After cultivation for 8 days under controlled conditions in a glasshouse (at 24/19° C., day/night; 16 hours light; no humidity control), the plants were sprayed at 500 l/Ha with an aqueous spray solution derived from the formulation of the technical active ingredients in a small amount of acetone and a solvent and emulsifier mixture referred to as IF50 (11.12% Emulsogen EL360™+44.44% N-methylpyrrolidone+44.44% Dowanol DPM glycol ether), to create a 50 g/l solution which was then diluted using 0.2% Genapol XO80 (CAS Number: 9043-30-5) as diluent to give the desired final dose of test compound.
(§2) Where active ingredients were applied as mixtures, aqueous spray solutions were prepared as above, containing both active ingredients.
(§3) The test plants were then grown under controlled conditions in a glasshouse (at 24/18° C., day/night; 15 hours light; 50% humidity) and watered twice daily. After 13 days, the test was evaluated visually for percentage phytotoxicity to the plants (where 100=total damage to plant; 0=no damage to plant; and NC=not captured) when compared to control untreated plants. Two to four replicates were applied for each treatment in a randomised block test design.
(§4) 22., E=X+Y−(X*Y/100), where
(§5) X=average percent phytotoxicity of herbicide A when applied at a certain rate Y=average percent phytotoxicity using herbicide B when applied at a certain rate E=the expected effect of the mixture of herbicides A and B as calculated from the Colby formula.

[2] = system: Alopecurus myosuroides (ALOMY); settings: for ALOMY percentage phytotoxicity: B1; for Observed phytotoxicity ALOMY: B2.2.5
Protocol: as §1, §2, §3, §4, §5

[3] = system: Amaranthus retroflexus (AMARE); settings: for AMARE percentage phytotoxicity: B1; for Observed phytotoxicity AMARE: B2.2.6
Protocol: as §1, §2, §3, §4, §5

[4] = system: Chenopodium album (CHEAL); settings: B1
Protocol: as §1, §2, §3, §4, §5

[5] = system: Digitaria sanguinalis (DIGSA); settings: for DIGSA percentage phytotoxicity: B1; for Observed phytotoxicity DIGSA: B2.2.3
Protocol: as §1, §2, §3, §4, §5

[6] = system: Echinochloa crus-galli (ECHCG); settings: for ECHCG percentage phytotoxicity: B1; for Observed phytotoxicity ECHCG: B2.2.2
Protocol: as §1, §2, §3, §4, §5

[7] = system: Ipomoea hederacea (IPOHE); settings: B1
Protocol: as §1, §2, §3, §4, §5

Lolium perenne (LOLPE) = settings: for LOLPE percentage phytotoxicity: B1; for Observed phytotoxicity LOLPE: B2.2.4
Protocol: as §1, §2, §3, §4, §5

Setaria faberi (SETFA) = settings: for SETFA percentage phytotoxicity: B1; for Observed phytotoxicity SETFA: B2.2.1
Protocol: as §1, §2, §3, §4, §5

Stellaria media (STEME) = settings: B1
Protocol: as §1, §2, §3, §4, §5

`CC1(C)CN(Cc2ccccc2NS(=O)(=O)C(F)(F)F)C1=O` [B-IV] gave an ABUTH percentage phytotoxicity ([1]; 31.25 g/ha post-emergence) of 80%, an ABUTH percentage phytotoxicity ([1]; 62.5 g/ha post-emergence) of 80% and an ABUTH percentage phytotoxicity ([1]; 125 g/ha post-emergence) of 90%. It also gave an ABUTH percentage phytotoxicity ([1]; 250 g/ha post-emergence) of 98%, an ABUTH percentage phytotoxicity ([1]; 500 g/ha post-emergence) of 85% and an ABUTH percentage phytotoxicity ([1]; 1000 g/ha post-emergence) of 85%. For the same molecule, the ALOMY percentage phytotoxicity ([2]; 31.25 g/ha post-emergence) was 4%, the ALOMY percentage phytotoxicity ([2]; 62.5 g/ha post-emergence) was 2% and the ALOMY percentage phytotoxicity ([2]; 125 g/ha post-emergence) was 1%. It also gave an ALOMY percentage phytotoxicity ([2]; 250 g/ha post-emergence) of 3%, an ALOMY percentage phytotoxicity ([2]; 500 g/ha post-emergence) of 8% and an ALOMY percentage phytotoxicity ([2]; 1000 g/ha post-emergence) of 8%. The “Observed phytotoxicity ALOMY” value ([2]; 500 g/ha post-emergence) was 8%, the “Observed phytotoxicity ALOMY” value ([2]; 1000 g/ha post-emergence) was 8% and the AMARE percentage phytotoxicity ([3]; 31.25 g/ha post-emergence) was 0%. It also gave an AMARE percentage phytotoxicity ([3]; 62.5 g/ha post-emergence) of 15%, an AMARE percentage phytotoxicity ([3]; 125 g/ha post-emergence) of 43% and an AMARE percentage phytotoxicity ([3]; 250 g/ha post-emergence) of 43%. For the same molecule, the AMARE percentage phytotoxicity ([3]; 500 g/ha post-emergence) was 75%, the AMARE percentage phytotoxicity ([3]; 1000 g/ha post-emergence) was 85% and the “Observed phytotoxicity AMARE” value ([3]; 31.25 g/ha post-emergence) was 0%. For the same molecule, the “Observed phytotoxicity AMARE” value ([3]; 62.5 g/ha post-emergence) was 15%, the CHEAL percentage phytotoxicity ([4]; 31.25 g/ha post-emergence) was 0% and the CHEAL percentage phytotoxicity ([4]; 62.5 g/ha post-emergence) was 8%. The CHEAL percentage phytotoxicity ([4]; 125 g/ha post-emergence) was 15%, the CHEAL percentage phytotoxicity ([4]; 250 g/ha post-emergence) was 40% and the CHEAL percentage phytotoxicity ([4]; 500 g/ha post-emergence) was 25%. The CHEAL percentage phytotoxicity ([4]; 1000 g/ha post-emergence) was 75%, the DIGSA percentage phytotoxicity ([5]; 31.25 g/ha post-emergence) was 0% and the DIGSA percentage phytotoxicity ([5]; 62.5 g/ha post-emergence) was 3%. The DIGSA percentage phytotoxicity ([5]; 125 g/ha post-emergence) was 8%, the DIGSA percentage phytotoxicity ([5]; 250 g/ha post-emergence) was 10% and the DIGSA percentage phytotoxicity ([5]; 500 g/ha post-emergence) was 15%. The DIGSA percentage phytotoxicity ([5]; 1000 g/ha post-emergence) was 55%, the “Observed phytotoxicity DIGSA” value ([5]; 250 g/ha post-emergence) was 10% and the “Observed phytotoxicity DIGSA” value ([5]; 500 g/ha post-emergence) was 15%. For the same molecule, the “Observed phytotoxicity DIGSA” value ([5]; 1000 g/ha post-emergence) was 55%, the ECHCG percentage phytotoxicity ([6]; 31.25 g/ha post-emergence) was 1% and the ECHCG percentage phytotoxicity ([6]; 62.5 g/ha post-emergence) was 13%. It also gave an ECHCG percentage phytotoxicity ([6]; 125 g/ha post-emergence) of 38%, an ECHCG percentage phytotoxicity ([6]; 250 g/ha post-emergence) of 60% and an ECHCG percentage phytotoxicity ([6]; 500 g/ha post-emergence) of 78%. The ECHCG percentage phytotoxicity ([6]; 1000 g/ha post-emergence) was 90%, the “Observed phytotoxicity ECHCG” value ([6]; 125 g/ha post-emergence) was 38% and the “Observed phytotoxicity ECHCG” value ([6]; 250 g/ha post-emergence) was 60%. The “Observed phytotoxicity ECHCG” value ([6]; 500 g/ha post-emergence) was 78%, the IPOHE percentage phytotoxicity ([7]; 31.25 g/ha post-emergence) was 55% and the IPOHE percentage phytotoxicity ([7]; 62.5 g/ha post-emergence) was 80%. For the same molecule, the IPOHE percentage phytotoxicity ([7]; 125 g/ha post-emergence) was 75%, the IPOHE percentage phytotoxicity ([7]; 250 g/ha post-emergence) was 83% and the IPOHE percentage phytotoxicity ([7]; 500 g/ha post-emergence) was 83%. For the same molecule, the IPOHE percentage phytotoxicity ([7]; 1000 g/ha post-emergence) was 94%, the LOLPE percentage phytotoxicity (Lolium perenne (LOLPE); 31.25 g/ha post-emergence) was 0% and the LOLPE percentage phytotoxicity (Lolium perenne (LOLPE); 62.5 g/ha post-emergence) was 0%. For the same molecule, the LOLPE percentage phytotoxicity (Lolium perenne (LOLPE); 125 g/ha post-emergence) was 0%, the LOLPE percentage phytotoxicity (Lolium perenne (LOLPE); 250 g/ha post-emergence) was 8% and the LOLPE percentage phytotoxicity (Lolium perenne (LOLPE); 500 g/ha post-emergence) was 38%. The LOLPE percentage phytotoxicity (Lolium perenne (LOLPE); 1000 g/ha post-emergence) was 65%, the “Observed phytotoxicity LOLPE” value (Lolium perenne (LOLPE); 62.5 g/ha post-emergence) was 0% and the “Observed phytotoxicity LOLPE” value (Lolium perenne (LOLPE); 125 g/ha post-emergence) was 0%. For the same molecule, the “Observed phytotoxicity LOLPE” value (Lolium perenne (LOLPE); 250 g/ha post-emergence) was 8%, the “Observed phytotoxicity LOLPE” value (Lolium perenne (LOLPE); 500 g/ha post-emergence) was 38% and the “Observed phytotoxicity LOLPE” value (Lolium perenne (LOLPE); 1000 g/ha post-emergence) was 65%. For the same molecule, the SETFA percentage phytotoxicity (Setaria faberi (SETFA); 31.25 g/ha post-emergence) was 2%, the SETFA percentage phytotoxicity (Setaria faberi (SETFA); 62.5 g/ha post-emergence) was 0% and the SETFA percentage phytotoxicity (Setaria faberi (SETFA); 125 g/ha post-emergence) was 10%. The SETFA percentage phytotoxicity (Setaria faberi (SETFA); 250 g/ha post-emergence) was 8%, the SETFA percentage phytotoxicity (Setaria faberi (SETFA); 500 g/ha post-emergence) was 33% and the SETFA percentage phytotoxicity (Setaria faberi (SETFA); 1000 g/ha post-emergence) was 63%. For the same molecule, the “Observed phytotoxicity SETFA” value (Setaria faberi (SETFA); 125 g/ha post-emergence) was 10%, the “Observed phytotoxicity SETFA” value (Setaria faberi (SETFA); 250 g/ha post-emergence) was 8% and the “Observed phytotoxicity SETFA” value (Setaria faberi (SETFA); 500 g/ha post-emergence) was 33%. The “Observed phytotoxicity SETFA” value (Setaria faberi (SETFA); 1000 g/ha post-emergence) was 63%, the STEME percentage phytotoxicity (Stellaria media (STEME); 31.25 g/ha post-emergence) was 85% and the STEME percentage phytotoxicity (Stellaria media (STEME); 62.5 g/ha post-emergence) was 85%. The STEME percentage phytotoxicity (Stellaria media (STEME); 125 g/ha post-emergence) was 91%, the STEME percentage phytotoxicity (Stellaria media (STEME); 250 g/ha post-emergence) was 93% and the STEME percentage phytotoxicity (Stellaria media (STEME); 500 g/ha post-emergence) was 90%. It also gave an STEME percentage phytotoxicity (Stellaria media (STEME); 1000 g/ha post-emergence) of 93%.
